# Marks after values point to notes of the source that are not given here.
# Columns and labels:
# MDA-MB-436 = experiment: In vitro anti-proliferation (Cell Titre-Glo), MDA-MB-436; format: cell-based; conditions: Homo sapiens; MDA-MB-436, breast; 96 hours of incubation; mono-treatment
# Description: (§1) Tumor cells (Table 1) were propagated in a humidified 37° C. incubator in their respective growth medium supplemented 10% fetal calf serum. […] Test compounds were added to the wells using a Tecan-HP Digital Dispenser. After 96 hours of incubation cell viability was assessed with the Cell Titre-Glo Luminescent Cell Viability Assay (Promega).
# IGR-OV-1 = experiment: In vitro anti-proliferation (Cell Titre-Glo), IGR-OV-1; format: cell-based; conditions: Homo sapiens, IGROV-1; IGR-OV-1, ovary; 96 hours of incubation; mono-treatment
# Description: as §1
# HT-144 = experiment: In vitro anti-proliferation (Cell Titre-Glo), HT-144; format: cell-based; conditions: Homo sapiens; HT-144, melanoma; 96 hours of incubation; mono-treatment
# Description: as §1
# NCI-H460 = experiment: In vitro anti-proliferation (Cell Titre-Glo), NCI-H460; format: cell-based; conditions: Homo sapiens; NCI-H460, lung; 96 hours of incubation; mono-treatment
# Description: as §1
# [1] = test system: human 22Rv1 prostate cancer xenograft; experiment: 22Rv1 prostate cancer xenograft model; format: in vivo, mice
# Description: (§2) The oral and intraperitoneal application volume was 10 ml/kg. The time interval between two applications per day was 6-7 h. […] Changes in the body weight were a measure of treatment-related toxicity (>10%=critical, stop of treatment until recovery, >20%=toxic, termination). The tumor area was detected by means of an electronic caliper gauge [length (mm)×width (mm)]. In vivo anti-tumor efficacy is presented as T/C ratio (Treatment/Control) calculated with tumor areas at study end by the formula [(tumor area of treatment group at day x)−(tumor area of treatment group at day before first treatment)]/[(tumor area control group at day x)−(tumor area of control group at day before first treatment)]. […] Statistical analysis was assessed using SigmaStat software. A one-way analysis of variance was performed and differences to the control were compared by a pair-wise comparison procedure (Dunn's method).
# [2] = test system: human MDA-MB-436 breast cancer xenograft; experiment: MDA-MB-436 breast cancer xenograft model; format: in vivo, mice
# Description: as §2
smiles,measurement,setting,value
"O=C(c1cc(Cc2n[nH]c(=O)c3ccccc23)ccc1F)N1CCN(C(=O)C2CC2)CC1 [Compound B, Olaparib]",IC50,MDA-MB-436,6.5 µM
same,IC50,IGR-OV-1,22 µM
same,IC50,HT-144,23 µM
same,IC50,NCI-H460,28 µM
same,anti-tumor efficacy,"[1]; 22Rv1 prostate cancer model, result in words",no anti-tumor efficacy
same,Max. weight loss (%),"[1]; body weight vs start of treatment, Compound A 20 mg/kg 2QD p.o. 3 on/4 off, Compound B 20 mg/kg QD i.p.",−3%
same,T/C,"[1]; tumor area at study end, male Fox Chase SCID mice, Compound A 20 mg/kg 2QD p.o. 3 on/4 off, Compound B 20 mg/kg QD i.p.",1.18
same,anti-tumor efficacy,"[2]; MDA-MB-436 human breast cancer model, result in words",good anti-tumor efficacy
same,Max. weight loss (%),"[2]; body weight vs start of treatment, Compound A 20 mg/kg 2QD p.o. 3 on/4 off, Compound B 50 mg/kg QD i.p.",−3%
same,T/C,"[2]; tumor area at study end, NOD/Scid mice, Compound A 20 mg/kg 2QD p.o. 3 on/4 off, Compound B 50 mg/kg QD i.p.",0.29^*

# Reference: patent US11660301B2, “Combination of ATR kinase inhibitors with PARP inhibitors” (Bayer Pharma Aktiengesellschaft, priority 2017, dated 2023)
